For orientation: mortality means the percentage killed.

Structures are written as SMILES.

One assay deals with Myzus persicae (Green Peach Aphid). Put plainly: Myzus persicae (Green Peach Aphid): feeding/contact activity, sunflower leaf discs. The conditions noted are these: foliar, 144 h, application rate of 200 ppm, mixed ages on sprayed sunflower leaf discs, 6 days after infestation, read-out: mortality. Format: in vivo. Here is the method: Example B6: Myzus persicae (Green Peach Aphid): Feeding/Contact Activity
Sunflower leaf discs were placed onto agar in a 24-well microtiter plate and sprayed with aqueous test solutions prepared from 10′000 ppm DMSO stock solutions. After drying, the leaf discs were infested with an aphid population of mixed ages. The samples were assessed for mortality 6 days after infestation.
Take `Cc1ncc(OC[C@H](C)NS(=O)(=O)C(F)(F)F)cc1C(=O)NCc1ncccc1Cl` [Compound P-32, N-[(3-chloro-2-pyridyl)methyl]-2-methyl-5-[(2S)-2-(trifluoromethylsulfonylamino)propoxy]pyridine-3-carboxamide]: the mortality at 200 ppm was not below 80%. As for `Cc1ncc(OC[C@H](C)NS(=O)(=O)C(F)(F)F)cc1C(=O)NC(C)C` [Compound P-34, N-isopropyl-2-methyl-5-[(2S)-2-(trifluoromethylsulfonylamino)propoxy]pyridine-3-carboxamide], the mortality at 200 ppm was not below 80%. Same read-out and setting: the figure for `CCNC(=O)c1cc(OC[C@H](C)NS(=O)(=O)C(F)(F)F)cnc1C` [Compound P-36, N-ethyl-2-methyl-5-[(2S)-2-(trifluoromethylsulfonylamino)propoxy]pyridine-3-carboxamide] is not below 80%; for `Cc1ncc(OC[C@H](C)NS(=O)(=O)C(F)(F)F)cc1C(=O)N(C)C1CC1` [Compound P-40, N-cyclopropyl-N,2-dimethyl-5-[(2S)-2-(trifluoromethylsulfonylamino)propoxy]pyridine-3-carboxamide] it is not below 80%; for `C[C@@H](COc1cnc(Cl)c(C(=O)NCC(=O)NCC2CC2)c1)NS(=O)(=O)C(F)(F)F` [Compound P-53, 2-chloro-N-[2-(cyclopropylmethylamino)-2-oxo-ethyl]-5-[(2S)-2-(trifluoromethylsulfonylamino)propoxy]pyridine-3-carboxamide] it is not below 80%.

As for `C[C@@H](COc1cnc(Cl)c(C(=O)N(C)CC(F)F)c1)NS(=O)(=O)C(F)(F)F` [Compound P-59, 2-chloro-N-(2,2-difluoroethyl)-N-methyl-5-[(2S)-2-(trifluoromethylsulfonylamino)propoxy]pyridine-3-carboxamide], the mortality at 200 ppm was not below 80%. On the same count and under the same terms, the figure for `Cc1cnc(OC[C@H](C)NS(=O)(=O)C(F)(F)F)cc1C(=O)N(C)C1(C#N)CC1` [Compound P-67, N-(1-cyanocyclopropyl)-N,5-dimethyl-2-[(2S)-2-(trifluoromethylsulfonylamino)propoxy]pyridine-4-carboxamide] is not below 80%; for `CCc1ncsc1NC(=O)c1cc(OC[C@H](C)NS(=O)(=O)C(F)(F)F)ncc1C` [Compound P-68, N-(4-ethylthiazol-5-yl)-5-methyl-2-[(2S)-2-(trifluoromethylsulfonylamino)propoxy]pyridine-4-carboxamide] it is not below 80%.

Take `Cc1cnc(OC[C@H](C)NS(=O)(=O)C(F)(F)F)cc1C(=O)NCc1ccc2c(c1)COC2` [Compound P-69, N-(1,3-dihydroisobenzofuran-5-ylmethyl)-5-methyl-2-[(2S)-2-(trifluoromethylsulfonylamino)propoxy]pyridine-4-carboxamide]: the mortality at 200 ppm was not below 80%. As for `COCCC#CC(C)(C)NC(=O)c1cc(OC[C@H](C)NS(=O)(=O)C(F)(F)F)ncc1C` [Compound P-72, N-(5-methoxy-1,1-dimethyl-pent-2-ynyl)-5-methyl-2-[(2S)-2-(trifluoromethylsulfonylamino)propoxy]pyridine-4-carboxamide], the mortality at 200 ppm was not below 80%.

On to `Cc1cnc(OC[C@H](C)NS(=O)(=O)C(F)(F)F)cc1C(=O)NC(C)C1CC1` (stereo partly drawn) [Compound P-73, N-(1-cyclopropylethyl)-5-methyl-2-[(2S)-2-(trifluoromethylsulfonylamino)propoxy]pyridine-4-carboxamide], for which the mortality at 200 ppm is not below 80%. `Cc1cnc(OC[C@H](C)NS(=O)(=O)C(F)(F)F)cc1C(=O)Nc1cccc(C#N)c1F` [Compound P-75, N-(3-cyano-2-fluoro-phenyl)-5-methyl-2-[(2S)-2-(trifluoromethylsulfonylamino)propoxy]pyridine-4-carboxamide]: the mortality at 200 ppm is not below 80%. For `Cc1cnc(OC[C@H](C)NS(=O)(=O)C(F)(F)F)cc1C(=O)NC(C)c1cccnc1` (stereo partly drawn) [Compound P-76, 5-methyl-N-[1-(3-pyridyl)ethyl]-2-[(2S)-2-(trifluoromethylsulfonylamino)propoxy]pyridine-4-carboxamide], the mortality at 200 ppm is not below 80%.

A further assay has as its system Tetranychus urticae (Two-Spotted Spider Mite). Put plainly: whole plant or invertebrate. Format: in vivo. The conditions noted are these: foliar, 192 h, application rate of 200 ppm, mixed population (mobile stages) on sprayed bean leaf discs, 8 days after infestation, read-out: mortality. The procedure:
Example B11: Tetranychus urticae (Two-Spotted Spider Mite): Feeding/Contact Activity
Bean leaf discs on agar in 24-well microtiter plates were sprayed with aqueous test solutions prepared from 10′000 ppm DMSO stock solutions. After drying the leaf discs were infested with a mite population of mixed ages. The samples were assessed for mortality on mixed population (mobile stages) 8 days after infestation.
On to `C[C@@H](COc1cnc(Cl)c(C(=O)Nc2ncc(C#N)cc2F)c1)NS(=O)(=O)C(F)(F)F` [Compound P-18, 2-chloro-N-(5-cyano-3-fluoro-2-pyridyl)-5-[(2S)-2-(trifluoromethylsulfonylamino)propoxy]pyridine-3-carboxamide], for which the mortality at 200 ppm was not below 80%.

For the compound `C[C@@H](COc1cnc(Cl)c(C(=O)Nc2ccc(S(C)(=O)=O)cc2F)c1)NS(=O)(=O)C(F)(F)F` [Compound P-24, 2-chloro-N-(2-fluoro-4-methylsulfonyl-phenyl)-5-[(2S)-2-(trifluoromethylsulfonylamino)propoxy]pyridine-3-carboxamide], the mortality at 200 ppm was not below 80%.

With `Cc1ncc(OC[C@H](C)NS(=O)(=O)C(F)(F)F)cc1C(=O)NCc1ncccc1Cl` [Compound P-32, N-[(3-chloro-2-pyridyl)methyl]-2-methyl-5-[(2S)-2-(trifluoromethylsulfonylamino)propoxy]pyridine-3-carboxamide], the mortality at 200 ppm is not below 80%.

On to `Cc1ncc(OC[C@H](C)NS(=O)(=O)C(F)(F)F)cc1C(=O)Nc1ccc(F)cc1F` [Compound P-33, N-(2,4-difluorophenyl)-2-methyl-5-[(2S)-2-(trifluoromethylsulfonylamino)propoxy]pyridine-3-carboxamide], for which the mortality at 200 ppm was not below 80%. For `Cc1ncc(OC[C@H](C)NS(=O)(=O)C(F)(F)F)cc1C(=O)NC1CC(F)(F)C1` [Compound P-37, N-(3,3-difluorocyclobutyl)-2-methyl-5-[(2S)-2-(trifluoromethylsulfonylamino)propoxy]pyridine-3-carboxamide], the mortality at 200 ppm is not below 80%. Consider `Cc1ncc(OC[C@H](C)NS(=O)(=O)C(F)(F)F)cc1C(=O)NCC(F)F` [Compound P-39, N-(2,2-difluoroethyl)-2-methyl-5-[(2S)-2-(trifluoromethylsulfonylamino)propoxy]pyridine-3-carboxamide], for which the mortality at 200 ppm was not below 80%. Still for that read-out and setting: the figure for `C[C@@H](COc1cnc(Cl)c(C(=O)NCc2ccccc2)c1)NS(=O)(=O)C(F)(F)F` [Compound P-44, N-benzyl-2-chloro-5-[(2S)-2-(trifluoromethylsulfonylamino)propoxy]pyridine-3-carboxamide] is not below 80%; for `C[C@@H](COc1cnc(Cl)c(C(=O)NC2(C)CCOC2)c1)NS(=O)(=O)C(F)(F)F` (stereo partly drawn) [Compound P-51, 2-chloro-N-(3-methyltetrahydrofuran-3-yl)-5-[(2S)-2-(trifluoromethylsulfonylamino)propoxy]pyridine-3-carboxamide] it is not below 80%; for `Cc1cnc(OC[C@H](C)NS(=O)(=O)C(F)(F)F)cc1C(=O)NCc1ccccc1` [Compound P-77, N-benzyl-5-methyl-2-[(2S)-2-(trifluoromethylsulfonylamino)propoxy]pyridine-4-carboxamide] it is not below 80%.

For `COCN([C@@H](C)COc1cc(C(=O)NC2(C#N)CC2)c(C)cn1)S(=O)(=O)C(F)(F)F` [Compound P-79, N-(1-cyanocyclopropyl)-2-[(2S)-2-[methoxymethyl(trifluoromethylsulfonyl)amino]propoxy]-5-methyl-pyridine-4-carboxamide], the mortality at 200 ppm was not below 80%. For the compound `Cc1cnc(OC[C@H](C)NS(=O)(=O)C(F)(F)F)cc1C(=O)NCC(F)(F)F` [Compound P-80, 5-methyl-N-(2,2,2-trifluoroethyl)-2-[(2S)-2-(trifluoromethylsulfonylamino)propoxy]pyridine-4-carboxamide], the mortality at 200 ppm was not below 80%.

Values taken from US20260015325A1, “ALKOXY HETEROARYL- CARBOXAMIDE OR THIOAMIDE COMPOUNDS” (SYNGENTA CROP PROTECTION AG, priority 2022, published 2026).
